ChEMBL document CHEMBL1201862, “PubChem BioAssay data set” (2004)
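Values below derive from 48-hour exposures of cells grown in 96-well plates, with endpoints linearly interpolated between the two concentrations bracketing the appropriate inhibition level. GI50 is the concentration that inhibits growth by half.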 Calls of active or inactive are those of the source. Rule as the data show it: active = GI50 up to about 1.1 µM and inactive = higher.

Assays:
Assay in all cases: growth of human tumour cells (NCI), 48 h
Hs-578T = tested on: Hs-578T
UACC-62 = tested on: UACC-62
SK-MEL-2 = tested on: SK-MEL-2
HOP-62 = tested on: HOP-62
HCT-116 = tested on: HCT-116
EKVX = tested on: EKVX
NCI-H460 = tested on: NCI-H460
HL-60 = tested on: HL-60
KM12 = tested on: KM12
786-0 = tested on: 786-0
MDA-MB-231 = tested on: MDA-MB-231
OVCAR-3 = tested on: OVCAR-3
SR = tested on: SR
M14 = tested on: M14
ACHN = tested on: ACHN
U-251 = tested on: U-251
SNB-19 = tested on: SNB-19
SF-295 = tested on: SF-295
MCF7 = tested on: MCF7
BT-549 = tested on: BT-549

SMILES	GI50 (Hs-578T)	GI50 (UACC-62)	GI50 (SK-MEL-2)	GI50 (HOP-62)	GI50 (HCT-116)	GI50 (EKVX)	GI50 (NCI-H460)	GI50 (HL-60)	GI50 (KM12)	GI50 (786-0)	GI50 (MDA-MB-231)	GI50 (OVCAR-3)	GI50 (SR)	GI50 (M14)	GI50 (ACHN)	GI50 (U-251)	GI50 (SNB-19)	GI50 (SF-295)	GI50 (MCF7)	GI50 (BT-549)
CNS(=O)(=O)c1ccccc1C(=N)c1ccccc1	> 100 µM (inactive)	> 100 µM (inactive)	> 100 µM (inactive)	> 100 µM (inactive)	> 100 µM (inactive)	> 100 µM (inactive)	> 100 µM (inactive)	> 100 µM (inactive)	> 100 µM (inactive)	> 100 µM (inactive)	> 100 µM (inactive)	> 100 µM (inactive)	> 100 µM (inactive)	> 100 µM (inactive)	> 100 µM (inactive)	> 100 µM (inactive)	> 100 µM (inactive)	> 100 µM (inactive)	> 100 µM (inactive)	> 100 µM (inactive)
CCCCCCCC(=O)N/N=C/c1ccc(Sc2nccn2C)c([N+](=O)[O-])c1	18.5 µM (inactive)	13 µM (inactive)	16.6 µM (inactive)	17.5 µM (inactive)	14.4 µM (inactive)	14.7 µM (inactive)	14.9 µM (inactive)	0.27 µM (active)	14.1 µM (inactive)	14.9 µM (inactive)	15 µM (inactive)	15.6 µM (inactive)	18.8 µM (inactive)	13.2 µM (inactive)	21.9 µM (inactive)	16.2 µM (inactive)	21.4 µM (inactive)	15.6 µM (inactive)	16.6 µM (inactive)	16.1 µM (inactive)
C1CSCCCSCCCSCCCSCCCSC1	44.8 µM (inactive)	44.6 µM (inactive)	20.7 µM (inactive)	47.4 µM (inactive)	31.2 µM (inactive)	24.5 µM (inactive)	14.4 µM (inactive)	14.2 µM (inactive)	25.4 µM (inactive)	40.2 µM (inactive)	29.2 µM (inactive)	28.6 µM (inactive)	11.4 µM (inactive)	29.7 µM (inactive)	29.2 µM (inactive)	42.5 µM (inactive)	37.9 µM (inactive)	22.2 µM (inactive)	24.5 µM (inactive)	33.8 µM (inactive)
C=C1c2nc3ccccc3n2C=C(c2ccccc2)N1c1ccc(Cl)cc1	21.3 µM (inactive)	19.1 µM (inactive)	69.5 µM (inactive)	18.7 µM (inactive)	18.5 µM (inactive)	13.4 µM (inactive)	12.6 µM (inactive)	> 100 µM (inactive)	24 µM (inactive)	5.83 µM (inactive)	17.4 µM (inactive)	20 µM (inactive)	64.7 µM (inactive)	17.1 µM (inactive)	9.18 µM (inactive)	13.1 µM (inactive)	46.1 µM (inactive)	12.6 µM (inactive)	11.2 µM (inactive)	23.4 µM (inactive)
O=C(Nc1ccccc1C(=O)O)/C(=C/c1ccccc1)NC(=O)c1ccccc1	> 100 µM (inactive)	> 100 µM (inactive)	> 100 µM (inactive)	> 100 µM (inactive)	> 100 µM (inactive)	> 100 µM (inactive)	> 100 µM (inactive)	> 100 µM (inactive)	> 100 µM (inactive)	> 100 µM (inactive)	> 100 µM (inactive)	> 100 µM (inactive)	> 100 µM (inactive)	> 100 µM (inactive)	> 100 µM (inactive)	> 100 µM (inactive)	> 100 µM (inactive)	> 100 µM (inactive)	> 100 µM (inactive)	> 100 µM (inactive)
CC(CCC(=O)O)C(=O)O (stereo not given)	> 100 µM (inactive)	> 100 µM (inactive)	> 100 µM (inactive)	> 100 µM (inactive)	> 100 µM (inactive)	> 100 µM (inactive)	> 100 µM (inactive)	> 100 µM (inactive)	> 100 µM (inactive)	> 100 µM (inactive)	> 100 µM (inactive)	> 100 µM (inactive)	> 100 µM (inactive)	> 100 µM (inactive)	> 100 µM (inactive)	> 100 µM (inactive)	> 100 µM (inactive)	> 100 µM (inactive)	> 100 µM (inactive)	> 100 µM (inactive)
CCCCCCCCCCCCCCCC(=O)Nc1ccn(C2CC(OP(=O)(O)OCC3OC(n4cc(F)c(=O)[nH]c4=O)CC3OC(C)=O)C(CO)O2)c(=O)n1 (stereo not given)	12.1 µM (inactive)	8.32 µM (inactive)	> 45.1 µM (inactive)	0.351 µM (active)	3.84 µM (inactive)	> 61.2 µM (inactive)	0.0664 µM (active)	3.94 µM (inactive)	15 µM (inactive)	6.47 µM (inactive)	> 43.4 µM (inactive)	> 53.2 µM (inactive)	1 µM (active)	11.4 µM (inactive)	0.128 µM (active)	15.7 µM (inactive)	2.73 µM (inactive)	1.81 µM (inactive)	> 100 µM (inactive)	3.18 µM (inactive)
N/C(=N\N=C\c1c[nH]c2ccccc12)Nc1ccccc1	0.14 µM (active)	0.248 µM (active)	0.345 µM (active)	0.308 µM (active)	0.214 µM (active)	2.92 µM (inactive)	0.251 µM (active)	0.144 µM (active)	0.153 µM (active)	0.318 µM (active)	0.624 µM (active)	0.134 µM (active)	0.955 µM (active)	0.11 µM (active)	0.671 µM (active)	0.315 µM (active)	0.54 µM (active)	0.134 µM (active)	0.185 µM (active)	0.527 µM (active)
COC1CCN(N(C)C)O1 (stereo not given)	> 100 µM (inactive)	> 100 µM (inactive)	> 100 µM (inactive)	> 100 µM (inactive)	> 100 µM (inactive)	> 100 µM (inactive)	> 100 µM (inactive)	> 100 µM (inactive)	> 100 µM (inactive)	> 100 µM (inactive)	> 100 µM (inactive)	> 100 µM (inactive)	> 100 µM (inactive)	> 100 µM (inactive)	> 100 µM (inactive)	> 100 µM (inactive)	> 100 µM (inactive)	> 100 µM (inactive)	> 100 µM (inactive)	> 100 µM (inactive)
NCCNCCCNC(=O)c1cc(-c2ccccc2)nc2ccccc12	48.3 µM (inactive)	19.9 µM (inactive)	21 µM (inactive)	27.2 µM (inactive)	35.6 µM (inactive)	> 100 µM (inactive)	35.2 µM (inactive)	30.6 µM (inactive)	33.1 µM (inactive)	22.3 µM (inactive)	31.3 µM (inactive)	> 100 µM (inactive)	28.3 µM (inactive)	15.1 µM (inactive)	38.1 µM (inactive)	17.6 µM (inactive)	50 µM (inactive)	28.6 µM (inactive)	45.4 µM (inactive)	55.8 µM (inactive)
O=c1c2cc(I)ccc2nc(SCc2nnco2)n1Cc1ccccc1	31.7 µM (inactive)	73.8 µM (inactive)	81.8 µM (inactive)	98.4 µM (inactive)	> 100 µM (inactive)	29 µM (inactive)	> 100 µM (inactive)	17.4 µM (inactive)	> 100 µM (inactive)	35.7 µM (inactive)	78.5 µM (inactive)	> 100 µM (inactive)	> 100 µM (inactive)	> 100 µM (inactive)	> 100 µM (inactive)	> 100 µM (inactive)	> 100 µM (inactive)	98.2 µM (inactive)	81.1 µM (inactive)	> 100 µM (inactive)
O=C(O)c1ccccc1/C=N/N=C1NCCCCN1	> 100 µM (inactive)	> 100 µM (inactive)	> 100 µM (inactive)	> 100 µM (inactive)	> 100 µM (inactive)	> 100 µM (inactive)	> 100 µM (inactive)	> 100 µM (inactive)	> 100 µM (inactive)	> 100 µM (inactive)	> 100 µM (inactive)	> 100 µM (inactive)	> 100 µM (inactive)	> 100 µM (inactive)	> 100 µM (inactive)	> 100 µM (inactive)	> 100 µM (inactive)	> 100 µM (inactive)	> 100 µM (inactive)	> 100 µM (inactive)
C[C@]12Cc3cnc(-c4ccccc4)nc3C[C@@H]1CC[C@@H]1[C@@H]2CC[C@@]2(C)[C@H]1CC[C@]2(C)O	17.4 µM (inactive)	11.2 µM (inactive)	21 µM (inactive)	13.6 µM (inactive)	17.4 µM (inactive)	25.2 µM (inactive)	17.3 µM (inactive)	17.9 µM (inactive)	13.9 µM (inactive)	10.2 µM (inactive)	18.8 µM (inactive)	23.5 µM (inactive)	6.59 µM (inactive)	11.1 µM (inactive)	14.2 µM (inactive)	16 µM (inactive)	18.5 µM (inactive)	14.8 µM (inactive)	19.3 µM (inactive)	23 µM (inactive)
COc1ccc(/C=C2\CCC(C)(CN(C)C)C2=O)cc1Br (stereo not given)	30.5 µM (inactive)	4.03 µM (inactive)	18.7 µM (inactive)	49.3 µM (inactive)	17.2 µM (inactive)	10.2 µM (inactive)	26.7 µM (inactive)	34.8 µM (inactive)	14 µM (inactive)	19.6 µM (inactive)	36.1 µM (inactive)	18.2 µM (inactive)	19.1 µM (inactive)	19.8 µM (inactive)	24.6 µM (inactive)	21.8 µM (inactive)	23 µM (inactive)	26.3 µM (inactive)	13.5 µM (inactive)	16 µM (inactive)
